Results reported in patent US11866401B2, “Salicyl fumarate derivative and its application in the treatment of Parkinson's disease and other neurodegenerative diseases” (CHONGQING NEUROPARK BIOSCIENCE CO., LTD., priority 2017, dated 2024).
Counter-ions that a name gives are not always drawn.

Tests used:
[1] = system: glutathione (GSH); test: In vitro cell experiments, intracellular glutathione concentration; type: cell-based
[2] = system: Nrf2 knockout mice with MPTP-induced dopaminergic neuronal damage; test: MPTP experiments on transgenic mice with the Nrf2 gene knocked out; type: in vivo
Excerpt: Inferring from the inclusion of salicyl in their molecule structure, this new target may be associated with anti-neuroinflammation.

[3] = system: MPTP-induced mouse PD models; conditions: cited from earlier work
[4] = system: MS patients; conditions: DEFINE; cited from earlier work
[5] = system: MPTP-induced dopaminergic neuron-damaged PD mouse models; test: MPTP-induced dopaminergic neuron damage PD mouse model, dose response protection and safety; type: in vivo, mice; conditions: for lowest dosage for protective effect: dopamine neuron protection; for dosage where toxic effects began to appear: mouse, in vivo, ip
Experimental: Using MSF and ESF to conduct therapeutic studies with widely accepted MPTP-induced dopaminergic neuron-damaged PD mouse models. […] For the experimental groups of MSF and ESF, 10 dose groups were used for each drug. 10 mice in each group. Both the experimental group and the control group used intraperitoneal administration. The control group was treated with DMF. Statistically significant protective effects of dopamine neurons were found, and the dose-effect relationship was observed.

[6] = system: MS patients; conditions: CONFIRM; cited from earlier work
[7] = system: models of chronic MPTP-induced dopamine neuron damage in mice; test: Chronic MPTP-induced dopamine neuron damage in mice; type: in vivo; conditions: 200 mg/kg/d, chronic MPTP model
[8] = HPLC level of MSF and ESF in peripheral blood, liver and brain tissue after intraperitoneal injection; type: in vivo; conditions: after intraperitoneal injection in mice
Excerpt: Unlike the positive control drug DMF which worked differently.

[9] = system: glutathione; conditions: unlike DMF; cited from earlier work
[10] = Preliminary experiments on pharmacological activities; conditions: compared with methyl and ethyl salicyl fumarate
Excerpt: 7. The applicants used the same fore-mentioned synthesis routes to perform esterification of salicylic acid and fumarate esters. They obtained propyl salicyl fumarate (compound structural formula shown as C), isopropyl salicyl fumarate (compound structural formula shown as D), and butyl salicyl fumarate (compound structural formula shown as E) respectively.

[11] = intraperitoneal administration, MPTP mice

SMILES: COC(=O)/C=C/C(=O)OC [DMF, dimethyl fumarate, reference compound]
- effect on glutathione concentration in the cell [1]: had the effect of depleting glutathione
- dopaminergic neuron protective effect [2]: lost the dopaminergic neuron protective effect
- protective effects against the neural toxicity of MPTP [3]: exhibit protective effects against the neural toxicity of MPTP
- reduction in occurrences of disability [4]: 38%
- reduction in occurrences of recurrence [4]: 49%
- dosage where DMF showed toxic effect [5, 11]: > 200 mg
- lowest dosage for protective effect [5, 11]: 50 mg/kg/day
- reduction in recurrence [6]: 34%

SMILES: CCOC(=O)/C=C/C(=O)OCc1ccccc1O [ESF, ethyl salicyl fumarate]
- effect on glutathione concentration in the cell [1]: no effect on the concentration of glutathione in the cell
- dopaminergic neuron protective effect [2]: still show significant protective effects
- dopamine neuron protection [7]: significant dopamine neuron protection
- protective effects of dopamine neurons compared to DMF [5, 11]: more significant protective effects
- lowest dosage for protective effect [5, 11]: 10 mg/kg/day
- dosage where toxic effects began to appear [5]: > 500 mg/kg/day
- entry into the brain through the blood-brain barrier [8]: can enter the brain through the blood-brain barrier
- molecular structure in the brain [8]: remains unchanged in the brain

SMILES: COC(=O)/C=C/C(=O)O [MMF, monomethyl fumarate]
- glutathione consumption, inhibition of mitochondrial and glycolysis functions [9]: does not consume glutathione and inhibit mitochondrial and glycolysis functions

SMILES: COC(=O)/C=C/C(=O)OCc1ccccc1O [MSF, methyl salicyl fumarate]
- effect on glutathione concentration in the cell [1]: no effect on the concentration of glutathione in the cell
- dopaminergic neuron protective effect [2]: still show significant protective effects
- dopamine neuron protection [7]: significant dopamine neuron protection
- protective effects of dopamine neurons compared to DMF [5, 11]: more significant protective effects
- lowest dosage for protective effect [5, 11]: 10 mg/kg/day
- dosage where toxic effects began to appear [5]: > 500 mg/kg/day
- entry into the brain through the blood-brain barrier [8]: can enter the brain through the blood-brain barrier
- molecular structure in the brain [8]: remains unchanged in the brain

SMILES: CCCCOC(=O)/C=C/C(=O)Oc1ccccc1C(=O)O [butyl salicyl fumarate]
- pharmacological activities [10]: lower than those of methyl salicyl fumarate and ethyl salicyl fumarate

SMILES: CC(C)OC(=O)/C=C/C(=O)Oc1ccccc1C(=O)O [isopropyl salicyl fumarate]
- pharmacological activities [10]: lower than those of methyl salicyl fumarate and ethyl salicyl fumarate

SMILES: CCCOC(=O)/C=C/C(=O)Oc1ccccc1C(=O)O [propyl salicyl fumarate]
- pharmacological activities [10]: lower than those of methyl salicyl fumarate and ethyl salicyl fumarate
